Results on 26 compounds are retold here after patent US8404692B2, “Pyrimidin-4-yl-3, 4-dihydro-2H-pyrrolo [1,2A] pyrazin-1-one compounds” (Cyclacel Limited, priority 2005, dated 2013).

The structures appear in SMILES notation.

The assay concerns the target T1, aurora-A (human) (Homo sapiens, UniProt O14965).
T1 construct: purchased Upstate, Dundee, UK
T1 sequence (O14965 1-403): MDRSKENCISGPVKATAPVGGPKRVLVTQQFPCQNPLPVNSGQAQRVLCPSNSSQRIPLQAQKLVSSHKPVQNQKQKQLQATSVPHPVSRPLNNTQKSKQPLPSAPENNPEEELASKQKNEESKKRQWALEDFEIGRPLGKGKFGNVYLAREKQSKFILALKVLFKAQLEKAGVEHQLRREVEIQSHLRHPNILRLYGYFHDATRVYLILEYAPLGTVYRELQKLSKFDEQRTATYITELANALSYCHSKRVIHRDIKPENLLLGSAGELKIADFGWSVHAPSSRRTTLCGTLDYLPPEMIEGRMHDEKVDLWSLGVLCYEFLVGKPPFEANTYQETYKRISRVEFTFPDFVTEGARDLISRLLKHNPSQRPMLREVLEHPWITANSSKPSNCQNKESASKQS
Nature of the assay: Aurora-A (human) kinase assay. Type of assay: biochemical. As to conditions: read-out: Activity (Aurora A activity, IC50 grading). As for the experimental part:
This was achieved by measurement of incorporation of radioactive phosphate from ATP into Kemptide substrate (LRRASLG), upon phosphorylation by commercially obtained aurora-A (human, Upstate; Dundee, UK). Assays were performed using 96-well plates and appropriate assay buffers (20 mM Tris, 25 mM β-glycerophosphate, 5 mM EGTA, 1 mM DTT, 1 mM sodium vanadate, pH 7.5), into which were added 2-5 ng of active enzyme with 500 μM substrate (Kemptide). The reactions were initiated by addition of MATP mix (15 mM MgCl2+100 μM ATP with 15-25 kBq per well of [γ-^32P]-ATP) and mixtures incubated for 30 min at 30° C. Reactions were stopped by addition of an equal volume of 75 mM aq orthophosphoric acid, followed by filtration through p81 filterplates (Whatman Polyfiltronics, Kent, UK). After washing 4 times with 75 mM aq orthophosphoric acid, plates were dried, scintillant added and incorporated radioactivity measured in a scintillation counter (TopCount, Packard Instruments, Pangbourne, Berks, UK). Compounds for kinase assay were made up as 10 mM stocks in DMSO and diluted into 10% DMSO in assay buffer. Data was analysed using curve-fitting software (XLfit version 4.0.2, IDBS, Guildford, Surrey, UK) to determine IC50 values (concentration of test compound which inhibits kinase activity by 50%).
Usually IC50 stands for the midpoint of a concentration-inhibition curve. As to `Cc1c(-c2ccnc(Nc3ccc(S(=O)(=O)N4CCOCC4)cc3)n2)c(C)n2c1C(=O)NCC2` [Example I-50, 6,8-Dimethyl-7-{2-[4-(morpholine-4-sulfonyl)-phenylamino]-pyrimidin-4-yl}-3,4-dihydro-2H-pyrrolo[1,2-a]pyrazin-1-one], the IC50 is less than 1 µM.
For the compound `Cc1ccc(Nc2nccc(-c3c(C)c4n(c3C)CCNC4=O)n2)cc1` [Example I-39, 6,8-Dimethyl-7-(2-p-tolylamino-pyrimidin-4-yl)-3,4-dihydro-2H-pyrrolo[1,2-a]pyrazin-1-one], the IC50 is less than 1 µM.
Turning to `CC(=O)N1CCN(C(=O)CCc2cccc(Nc3nccc(-c4c(C)c5n(c4C)CCNC5=O)n3)c2)CC1` [Example I-109, 7-(2-{3-[3-(4-Acetyl-piperazin-1-yl)-3-oxo-propyl]-phenylamino}-pyrimidin-4-yl)-6,8-dimethyl-3,4-dihydro-2H-pyrrolo[1,2-a]pyrazin-1-one], the IC50 is less than 1 µM.
As for `Cc1c(-c2ccnc(Nc3cccc(CCC(=O)N(C)C)c3)n2)c(C)n2c1C(=O)NCC2` [Example I-113, 3-{3-[4-(6,8-Dimethyl-1-oxo-1,2,3,4-tetrahydro-pyrrolo[1,2-a]pyrazin-7-yl)-pyrimidin-2-ylamino]-phenyl}-N,N-dimethyl-propionamide], the IC50 is less than 0.1 µM.
As to `Cc1c(-c2ccnc(Nc3ccc(F)c(Cl)c3)n2)c(C)n2c1C(=O)NCC2` [Example I-64, 7-[2-(3-Chloro-4-fluoro-phenylamino)-pyrimidin-4-yl]-6,8-dimethyl-3,4-dihydro-2H-pyrrolo[1,2-a]pyrazin-1-one], the concentration for half-maximal inhibition (IC50) is less than 1 µM.
As for `Cc1cc(C)n(-c2ccc(Nc3nccc(-c4c(C)c5n(c4C)CCNC5=O)n3)cc2)n1` [Example I-80, 7-{2-[4-(3,5-Dimethyl-pyrazol-1-yl)-phenylamino]-pyrimidin-4-yl}-6,8-dimethyl-3,4-dihydro-2H-pyrrolo[1,2-a]pyrazin-1-one], the IC50 was less than 1 µM.
With `Cc1cc(Nc2nccc(-c3c(C)c4n(c3C)CCNC4=O)n2)ccc1S(=O)(=O)N(C)CCCN(C)C` [Example I-91, N-(3-Dimethylamino-propyl)-4-[4-(6,8-dimethyl-1-oxo-1,2,3,4-tetrahydro-pyrrolo[1,2-a]pyrazin-7-yl)-pyrimidin-2-ylamino]-2,N-dimethyl-benzenesulfonamide], the IC50 is less than 10 µM.
To `Cc1c(-c2ccnc(Nc3cccc(CCC(=O)N4CCOCC4)c3)n2)c(C)n2c1C(=O)NCC2` [Example I-108, 6,8-Dimethyl-7-{2-[3-(3-morpholin-4-yl-3-oxo-propyl)-phenylamino]-pyrimidin-4-yl}-3,4-dihydro-2H-pyrrolo[1,2-a]pyrazin-1-one] belongs less than 0.1 µM; to `COc1ccc(Nc2nccc(-c3c(C)c4n(c3C)CCNC4=O)n2)c(OC)c1` [Example I-85, 7-[2-(2,4-Dimethoxy-phenylamino)-pyrimidin-4-yl]-6,8-dimethyl-3,4-dihydro-2H-pyrrolo[1,2-a]pyrazin-1-one], less than 10 µM.
On to `CNS(=O)(=O)c1ccc(Nc2nccc(-c3c(C)c4n(c3C)CCNC4=O)n2)cc1OC` [Example I-43, 4-[4-(6,8-Dimethyl-1-oxo-1,2,3,4-tetrahydropyrrolo[1,2-a]pyrazin-7-yl)-pyrimidin-2-ylamino]-2-methoxy-N-methyl-benzenesulfonamide], for which the IC50 was less than 1 µM.
In the case of `Cc1c(-c2ccnc(Nc3cccc(S(C)(=O)=O)c3)n2)c(C)n2c1C(=O)NCC2` [Example I-32, 7-[2-(3-Methanesulfonyl-phenylamino)-pyrimidin-4-yl]-6,8-dimethyl-3,4-dihydro-2H-pyrrolo[1,2-a]pyrazin-1-one], the IC50 is less than 0.1 µM.
Regarding `Cc1c(-c2ccnc(Nc3ccc(N4CCOC4=O)cc3)n2)c(C)n2c1C(=O)NCC2` [Example I-44, 6,8-Dimethyl-7-{2-[4-(2-oxo-oxazolidin-3-yl)-phenylamino]-pyrimidin-4-yl}-3,4-dihydro-2H-pyrrolo[1,2-a]pyrazin-1-one], the IC50 was less than 1 µM.
Consider `Cc1c(-c2ccnc(Nc3ccc(-n4cccn4)cc3)n2)c(C)n2c1C(=O)NCC2` [Example I-72, 6,8-Dimethyl-7-[2-(4-pyrazol-1-yl-phenylamino)-pyrimidin-4-yl]-3,4-dihydro-2H-pyrrolo[1,2-a]pyrazin-1-one], for which the IC50 is less than 1 µM.
For `CCOC(=O)c1c(C)nn(-c2ccc(Nc3nccc(-c4c(C)c5n(c4C)CCNC5=O)n3)cc2)c1C` [Example I-92, 1-{4-[4-(6,8-Dimethyl-1-oxo-1,2,3,4-tetrahydro-pyrrolo[1,2-a]pyrazin-7-yl)-pyrimidin-2-ylamino]-phenyl}-3,5-dimethyl-1H-pyrazole-4-carboxylic acid ethyl ester], the IC50 was less than 10 µM.
Turning to `Cc1c(-c2ccnc(Nc3ccc(CC(=O)N(C)CCCN(C)C)cc3)n2)c(C)n2c1C(=O)NCC2` [Example I-98, N-(3-Dimethylamino-propyl)-2-{4-[4-(6,8-dimethyl-1-oxo-1,2,3,4-tetrahydro-pyrrolo[1,2-a]pyrazin-7-yl)-pyrimidin-2-ylamino]-phenyl}-N-methyl-acetamide], the IC50 was less than 1 µM.
`Cc1c(-c2ccnc(Nc3ccc4c(c3)COCO4)n2)c(C)n2c1C(=O)NCC2` [Example I-45, 7-[2-(4H-Benzo[1,3]dioxin-6-ylamino)-pyrimidin-4-yl]-6,8-dimethyl-3,4-dihydro-2H-pyrrolo[1,2-a]pyrazin-1-one]: the IC50 is less than 0.1 µM.
The result for `Cc1c(-c2ccnc(Nc3ccc(C(C)C(=O)O)cc3)n2)c(C)n2c1C(=O)NCC2` (centres unmarked) [Example I-40, 2-{4-[4-(6,8-Dimethyl-1-oxo-1,2,3,4-tetrahydro-pyrrolo[1,2-a]pyrazin-7-yl)-pyrimidin-2-ylamino]-phenyl}-propionic acid] reads less than 1 µM.
`Cc1c(-c2ccnc(Nc3ccc(N4CCOCC4)nc3)n2)c(C)n2c1C(=O)NCC2` [Example I-13a, 6,8-Dimethyl-7-[2-(6-morpholin-4-yl-pyridin-3-ylamino)-pyrimidin-4-yl]-3,4-dihydro-2H-pyrrolo[1,2-a]pyrazin-1-one]: the IC50 is less than 1 µM.
Turning to `Cc1c(-c2ccnc(Nc3ccc4sc(C(=O)O)cc4c3)n2)c(C)n2c1C(=O)NCC2` [Example I-16, 5-[4-(6,8-Dimethyl-1-oxo-1,2,3,4-tetrahydro-pyrrolo[1,2-a]pyrazin-7-yl)-pyrimidin-2-ylamino]-benzo[b]thiophene-2-carboxylic acid], the IC50 is less than 0.1 µM.
Take `Cc1c(-c2ccnc(Nc3ccc(OCc4ccccc4)cc3)n2)c(C)n2c1C(=O)NCC2` [Example I-57, 7-[2-(4-Benzyloxy-phenylamino)-pyrimidin-4-yl]-6,8-dimethyl-3,4-dihydro-2H-pyrrolo[1,2-a]pyrazin-1-one]: the IC50 was less than 10 µM.
To `COc1cc(Nc2nccc(-c3c(C)c4n(c3C)CCNC4=O)n2)ccc1S(=O)(=O)N1CCCCC1` [Example I-22, 7-{2-[3-Methoxy-4-(piperidine-1-sulfonyl)-phenylamino]-pyrimidin-4-yl}-6,8-dimethyl-3,4-dihydro-2H-pyrrolo[1,2-a]pyrazin-1-one] belongs less than 1 µM; to `Cc1nc(-c2ccc(Nc3nccc(-c4c(C)c5n(c4C)CCNC5=O)n3)cc2)cs1` [Example I-71, 6,8-Dimethyl-7-{2-[4-(2-methyl-thiazol-4-yl)-phenylamino]-pyrimidin-4-yl}-3,4-dihydro-2H-pyrrolo[1,2-a]pyrazin-1-one], less than 1 µM.
The result for `Cc1ccc(F)cc1Nc1nccc(-c2c(C)c3n(c2C)CCNC3=O)n1` [Example I-88, 7-[2-(5-Fluoro-2-methyl-phenylamino)-pyrimidin-4-yl]-6,8-dimethyl-3,4-dihydro-2H-pyrrolo[1,2-a]pyrazin-1-one] reads less than 10 µM; that for `COCCNC(=O)CCc1cccc(Nc2nccc(-c3c(C)c4n(c3C)CCNC4=O)n2)c1` [Example I-105, 3-{3-[4-(6,8-Dimethyl-1-oxo-1,2,3,4-tetrahydro-pyrrolo[1,2-a]pyrazin-7-yl)-pyrimidin-2-ylamino]-phenyl}-N-(2-methoxy-ethyl)-propionamide], less than 0.1 µM.
Take `Cc1c(-c2ccnc(Nc3ccc(O)cc3)n2)c(C)n2c1C(=O)NCC2` [Example I-17, 7-[2-(4-Hydroxy-phenylamino)-pyrimidin-4-yl]-6,8-dimethyl-3,4-dihydro-2H-pyrrolo[1,2-a]pyrazin-1-one]: the IC50 was less than 1 µM.
Consider `Cc1c(-c2ccnc(Nc3ccc(F)cc3Cl)n2)c(C)n2c1C(=O)NCC2` [Example I-86, 7-[2-(2-Chloro-4-fluoro-phenylamino)-pyrimidin-4-yl]-6,8-dimethyl-3,4-dihydro-2H-pyrrolo[1,2-a]pyrazin-1-one], for which the 50% inhibitory concentration (IC50) was less than 10 µM.
